The target of series [1] is T1, AiWssI^ΔN (Achromobacter insuavis, UniProt A0A6J5I893). Nature of the series: HTS MU-Ac fluorescence esterase dose-response assay. Format: biochemical. The settings on record: MU-Ac as esterase substrate. Here is the method:
Large-scale HTS was conducted at the SPARC BioCentre Drug Discovery (Hospital for Sick Children, Toronto, Canada) with a subset of the Chembridge DIVERset library collection (as well as 135 manually selected compounds based on success against other SGNH enzymes) in a 384-well format. The assay was performed in singlet during the primary screen of the entire compound list and in triplicate for a follow-up confirmatory screen. Reaction setups for both screens were conducted with 50 mM sodium phosphate buffer (pH 6.5), 3 μM AiWssI^ΔN and 0.5 mM MU-Ac (final concentration of 5% [v/v] dimethyl sulfoxide) using a Thermo MultiDrop Combi Reagent Dispenser. The reaction was initiated by the addition of 20 μM of the test compounds using an Echo 550 acoustic dispenser (Labcyte). Fluorescence was monitored with a SynergyNeo microplate reader (BioTek) using excitation and emission wavelengths of 365 and 450 nm, respectively, for approximately 45 min alongside appropriate negative and positive controls. […] The hits remaining after the primary and confirmatory screening were examined further to identify possible PAINS, which could result in false-positive results ([91]). Further refinement of the lead candidates was also conducted by assessing the fluorescence quenching potential of lead compound hits by assaying the quenching potential of different compound concentrations (10.1 μM and/or 50.5 μM) against the fluorescence of 4-methylumbeliferone (247 μM) to reveal any potential false positives that were not actually because of AiWssI^ΔN activity. All fluorescence readings were normalized using the following equation to determine the percentage of quenching ([92]): NormalizedFlouresence=Fobs−μFmin/μFmax−μFminx100% In the aforementioned formula, Fobs is the sample fluorescence value, μFmin is the mean fluorescence value of the negative controls, and μFmax is the mean fluorescence value of the positive controls.
(§1) All inhibitor compounds for confirmatory assays were purchased from Enamine Ltd, with the exception of compound 1 (Santa Cruz Biotechnology, Inc), Compounds 2 and 7 (Molport via Maybridge Ltd and Vitas M Chemical Ltd, respectively) and compound 6 (Mcule, Inc). The dose–response curves were generated using either CDD Vault Analysis Software (Collaborative Drug Discovery, Inc) or GraphPad Prism, version 8.4.3. Inhibition constants (Ki) were calculated using the Cheng–Prusoff equation for competitive inhibition that is calculated using the KM of the uninhibited enzyme, the substrate concentration (S) at which the IC50 values were calculated, and the IC50 value of the inhibitor ([92]): Ki=IC50/(S/KM+1)

Series [2] deals with T1, AiWssI^ΔN. Nature of the series: Follow-up standard MU-Ac esterase assay (dose-response). The settings on record: for IC50: MU-Ac (0.5 mM) as esterase substrate, read-out: Second MU-Ac IC50; for Ki: MU-Ac as esterase substrate, Cheng-Prusoff, competitive inhibition, read-out: Second MU-Ac Ki. Type of series: biochemical. The procedure:
(§2) The fluorescence substrate, MU-Ac, was also tested as a substrate of WssI^ΔN for its amenability to the planned high-throughput analyses (see later). Reaction setups were exactly the same as that for pNP-Ac, with the exceptions of the assay buffer (50 mM sodium phosphate, 150 mM NaCl, 1 mM DTT, pH 7), MU-Ac as the acetyl donor (final concentration of 0.5 mM along with 5% [v/v] dimethyl sulfoxide, as this was the solvent for MU-Ac), and the assay was performed in fluorescence compatible microplates (Grenier BioOne) and monitored with excitation and emission wavelengths of 365 and 450 nm, respectively for 60 min.
as §1

Series [3] has as its target T1, AiWssI^ΔN. Nature of the series: pNP-Ac cleavage in the presence of oligosaccharide acceptors. Format: biochemical. The settings on record: 1 mM oligosaccharide, 6 mM pNP-Ac, 2 μM enzyme; for Specific activity of AiWssI^ΔN with acceptor relative to no acceptor control: t test; for Increase in AiWssI^ΔN activity versus reaction without celloacceptors: 30 min, 23 °C. Here is the method: Acetyltransfer by WssI was performed under the same esterase assay protocol outlined previously, but with the addition of cellulose or chitin oligosaccharides (1 mM) as the acceptor in the presence of either pNP-Ac (6 mM) or acetyl-CoA (4 mM) as the acetyl donor ([…]). Assessment of acetyltransfer was first monitored indirectly (absorbance at 405 nm wavelength) by observing differences in pNP liberation rates in the presence and absence of the polysaccharide acceptors. Later to confirm the acetylated products, reactions performed with pNP-Ac and acceptor polysaccharides were subjected to solid-phase extraction of the carbohydrate reaction products followed by detection with MS (as outlined later). Reactions utilizing acetyl-CoA as the donor were subjected to LC–MS analyses. All model fitting and statistical analyses were performed using GraphPad Prism, version 8.4.3.

The subject of series [4] is CC(=O)Oc1ccc([N+](=O)[O-])cc1. Nature of the series: O-acetylesterase Michaelis-Menten kinetics. Type of series: biochemical, Achromobacter insuavis. The settings on record: other: AiWssI^ΔN, acetyl donor substrate, pH 7. The procedure:
(§3) The enzymatic rate of the WssI^ΔN proteins was measured using chromogenic assays in a 50 mM sodium phosphate-buffered (pH 7) solution, with WssI^ΔN (3 μM unless specified otherwise) and were initiated by the addition of pNP-Ac to a final concentration of 6 mM (dissolved in 5% [v/v] ethanol). Assay samples and corresponding controls (i.e., containing no WssI^ΔN and/or substrate) were run in quadruplicate, and the progress of the reaction was monitored at 405 nm (Cytation5) for 30 min in 1 min intervals following a 5 s initial linear shake to mix contents thoroughly. These conditions were deemed standard assay conditions for subsequent trials except where modifications are noted. The activity assay to determine optimal pH and buffer type was performed with 2-(N-morpholino)ethanesulfonic acid over pH ranges of 5.5 to 6.5, sodium phosphate for pH 6.5 to 7.5, and Tris for the final range of 7.5 to 9.25. In addition, standard assay conditions were modified by incorporating various inhibitors and common reducing agents to determine effects on WssI^ΔN activity. […] To test the effects of the absence of DTT, trials were conducted where DTT was removed from all purification and dialysis buffers, unless mentioned otherwise. Data are either reported in specific activity as units of esterase activity (i.e., the amount of enzyme required to release 1 μmol of p-nitrophenol per min^−1 per mg of protein^−1) or as percent residual activity when compared with the WssI^ΔN controls (i.e., containing no inhibitors).
as §2
(§4) Kinetic assays were performed using the same standard assay conditions for esterase reactions outlined previously, but with acetyl donor pNP-Ac concentrations ranging from 0 to 10 mM and MU-Ac concentrations between 0 and 8 mM. Michaelis–Menten parameters, such as KM and kcat, were calculated from the kinetic curves according to a nonlinear regression analysis of plots of initial velocity as a function of pNP-Ac or MU-Ac concentration using GraphPad Prism, version 8.4.3 (GraphPad Sofware, Inc).

The test system of series [5] is CC(=O)Oc1ccc2c(C)cc(=O)oc2c1. Nature of the series: O-acetylesterase Michaelis-Menten kinetics. Format: biochemical, Achromobacter insuavis. The settings on record: other: AiWssI^ΔN, acetyl donor substrate, pH 7. Here is the method:
as §3, §2, §4

Substrate in series [6]: CC(=O)Oc1ccc([N+](=O)[O-])cc1
Nature of the series: O-acetylesterase Michaelis-Menten kinetics. Format: biochemical, Pseudomonas fluorescens. The settings on record: other: PfWssI^ΔN, acetyl donor substrate, pH 7. The procedure: as §3, §2, §4

Substrate in series [7]: CC(=O)Oc1ccc2c(C)cc(=O)oc2c1
Nature of the series: O-acetylesterase Michaelis-Menten kinetics. Type of series: biochemical, Pseudomonas fluorescens. Particulars: other: PfWssI^ΔN, acetyl donor substrate, pH 7. Here is the method:
as §3, §2, §4

T1 sequence (A0A6J5I893 entry or part of it, stated change not applied): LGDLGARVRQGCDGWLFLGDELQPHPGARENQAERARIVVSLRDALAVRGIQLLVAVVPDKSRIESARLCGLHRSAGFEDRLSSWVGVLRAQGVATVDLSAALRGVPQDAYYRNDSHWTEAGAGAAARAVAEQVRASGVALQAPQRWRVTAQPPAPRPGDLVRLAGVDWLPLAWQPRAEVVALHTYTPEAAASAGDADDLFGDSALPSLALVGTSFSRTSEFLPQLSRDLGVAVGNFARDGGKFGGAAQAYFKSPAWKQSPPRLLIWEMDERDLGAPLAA

`CCOC(=O)NC(=O)/C(C#N)=C/c1ccc(N(C)C)cc1` [Compound 2, Ethyl N-[(2E)-2-cyano-2-{[4-(dimethylamino)-phenyl]methylidene}acetyl]carbamate]: the IC50 – broadly, the concentration that gives 50% inhibition – on AiWssI^ΔN [1] was 60.2 µM. Also, on AiWssI^ΔN [2], the IC50 came out at 22.6 µM and the inhibition constant Ki (as a rule, a measure of affinity in units of concentration, obtained from inhibition or displacement) worked out at 12 µM.
For the molecule `Cn1cccc1/C=C(/C#N)c1nnc(-c2ccccc2)n1C` [Compound 3, (2Z)-3-(1-Methyl-1H-pyrrol-2-yl)-2-(4-methyl-5-phenyl-4H-1,2,4-triazol-3-yl)-prop-2-enenitrile], the IC50 at AiWssI^ΔN [1] was found to be 85.3 µM. At AiWssI^ΔN [2], the IC50 came out at 41.4 µM and the Ki came to 22.1 µM.
As to `CN1CCN(c2ccc(NC(=O)c3cc4sc(Nc5ccccc5)nc4s3)cn2)CC1` [Compound 4, N-[6-(4-Methylpiperazin-1-yl)pyridin-3-yl]-2-(phenylamino)thieno[2,3-days][1,3]thiazole-5-carboxamide], the concentration for half-maximal inhibition (IC50) at AiWssI^ΔN [1] was 55.3 µM.
Same read-out and setting: with `O=C1NC(=O)c2ccccc2/C1=C\C=Cc1ccco1` [Compound 5, (4E)-4-[3-(Furan-2-yl)prop-2-en-1-ylidene]-1,2,3,4-tetrahydroisoquino-line-1,3-dione] the figure was 51.9 µM; with `CN1/C(=C/C(=O)Cn2cc(S(=O)(=O)N3CCCC3)ccc2=O)C(C)(C)c2ccccc21` [Compound 6, 1-{2-Oxo-3-[(2E)-1,3,3-trimethyl-2,3-dihydro-1H-indol-2-ylidene]propyl}-5-(pyrrolidine-1-sulfonyl)-1,2-dihydropyridin-2-one], 71.9 µM.
Consider `CC(=O)Nc1ccc(S(=O)(=O)Nc2ccc([N+](=O)[O-])cc2)cc1` [Compound 7, N-{4-[(4-Nitrophenyl)sulfamoyl]phenyl}acetamide], for which, on AiWssI^ΔN [1], the IC50 came to 100 µM.
On to `Cc1nc(N2CCCCC2)sc1/C=N/Nc1ccc(C(=O)O)cc1` [Compound 8, 4-[(2E)-2-{[4-Methyl-2-(piperidin-1-yl)-1,3-thiazol-5-yl]methylidene}hydrazin-1-yl]benzoic acid], for which, at AiWssI^ΔN [1], the IC50 was determined as 90.3 µM.
Take `O=C[C@H](O)[C@@H](O)[C@H](O[C@@H]1O[C@H](CO)[C@@H](O)[C@H](O)[C@H]1O)[C@H](O)CO` [cellobiose]: the “Specific activity of AiWssI^ΔN with acceptor relative to no acceptor control” value on AiWssI^ΔN [3] is reported as “Significant increases in activity”.
For the molecule `OC[C@H]1O[C@@H](O[C@H]2[C@H](O)[C@@H](O)[C@H](O[C@H]3[C@H](O)[C@@H](O)[C@H](O[C@H]4[C@H](O)[C@@H](O)[C@H](O[C@H]5[C@H](O)[C@@H](O)[C@H](O[C@H]6[C@H](O)[C@@H](O)C(O)O[C@@H]6CO)O[C@@H]5CO)O[C@@H]4CO)O[C@@H]3CO)O[C@@H]2CO)[C@H](O)[C@@H](O)[C@@H]1O` (stereo partly drawn) [cellohexaose], at AiWssI^ΔN [3], the “Increase in AiWssI^ΔN activity versus reaction without celloacceptors” value is recorded as 31% and the “Specific activity of AiWssI^ΔN with acceptor relative to no acceptor control” value is on record as “Significant increases in activity”.
The corresponding values for `OC[C@H]1O[C@@H](O[C@H]2[C@H](O)[C@@H](O)[C@H](O[C@H]3[C@H](O)[C@@H](O)[C@H](O[C@H]4[C@H](O)[C@@H](O)[C@H](O[C@H]5[C@H](O)[C@@H](O)C(O)O[C@@H]5CO)O[C@@H]4CO)O[C@@H]3CO)O[C@@H]2CO)[C@H](O)[C@@H](O)[C@@H]1O` (stereo partly drawn) [cellopentaose] are 28% and “Significant increases in activity”.
As for `OC[C@H]1O[C@@H](O[C@H]2[C@H](O)[C@@H](O)[C@H](O[C@H]3[C@H](O)[C@@H](O)[C@H](O[C@H]4[C@H](O)[C@@H](O)C(O)O[C@@H]4CO)O[C@@H]3CO)O[C@@H]2CO)[C@H](O)[C@@H](O)[C@@H]1O` (stereo partly drawn) [cellotetraose], the “Specific activity of AiWssI^ΔN with acceptor relative to no acceptor control” value at AiWssI^ΔN [3] is given as “Significant increases in activity”.
On to `OC[C@H]1O[C@@H](O[C@H]2[C@H](O)[C@@H](O)[C@H](O[C@H]3[C@H](O)[C@@H](O)C(O)O[C@@H]3CO)O[C@@H]2CO)[C@H](O)[C@@H](O)[C@@H]1O` (stereo partly drawn) [cellotriose], for which, on AiWssI^ΔN [3], the “Specific activity of AiWssI^ΔN with acceptor relative to no acceptor control” value is recorded as “Significant increases in activity”.
Take AiWssI^ΔN (Achromobacter insuavis): in series [4], the Km (in general, the concentration of substrate that gives half-maximal velocity) amounted to 3850 ± 1070 µM; the kcat – broadly, the number of substrate molecules converted per active site and unit of time at saturation – came to 0.031 ± 0.0035 s⁻¹; the kcat/Km – broadly, the second-order rate constant that governs catalysis at low substrate concentration – was found to be 8 M⁻¹ s⁻¹. Besides, in series [5], the Km came to 570 ± 240 µM, the kcat amounted to 0.00258 ± 0.00028 s⁻¹ and the kcat/Km is 4.5 M⁻¹ s⁻¹.

B1: PfWssI^ΔN (Pseudomonas fluorescens) (protein)
chain: GDTGPRVRPGCPGWLFISDELRINRHAEANAQTKAQAVIDLQKQLGQKGIDLQVVVVPDKSRIAAAQRCGLYRPAVLDNRVRDWTAMLQAAGVSALDLTETLKPLGAEAYLRTDTHWSEIGSNAGAKAVAQRTQQRGIKATPEQTFDITQAPLAVRPGDLVRLAGLDWLPPTLQPPGESVAASTTHETGGATSNADDLFGDAGLPNVALIGTSFSRNSNFVGFLQKALNAPVGNFSKDGGEFSGAAKAYFDSPAFKQTPPKLLIWEIPERDLQTPYDVITIGQ
Regarding B1, in series [6], the Michaelis-Menten constant (Km) is 2410 ± 770 µM, the kcat turned out to be 0.0312 ± 0.0034 s⁻¹ and the kcat/Km came out at 13 M⁻¹ s⁻¹. Moreover, in series [7], the Km stood at 340 ± 100 µM, the kcat was 0.00162 ± 0.00016 s⁻¹ and the specificity constant (kcat/Km) worked out at 4.8 M⁻¹ s⁻¹.

(Values after publication PMC10302187, “WssI from the Gram-negative bacterial cellulose synthase is an O-acetyltransferase that acts on cello-oligomers with several acetyl donor substrates” (The Journal of Biological Chemistry, 2023).)
